Assay results as given in patent US11344499B2, “Nanoparticles as delivery vehicles of active ingredients and methods for the production thereof” (CONSIGLIO NAZIONALE DELLE RICERCHE, priority 2017, dated 2022).

How the values were obtained:
HT29 cells [1] = test: Cell cycle analysis by flow cytometry (PI); assay type: cell-based, human; settings: HT29, 50 μM of 9-HSA, 24 h
Method: Cell cycle analysis was performed as follows: 5.0×10^3 HT29 cells were seeded in 200 μl of growth medium in a 48-well culture plate. After 24 h of cell growth, the medium was removed and the cells were incubated with the experimental medium containing KER-NPs-9HSA (50 μM of 9-HSA) and free 9-HSA. Twenty-four hours after treatment, cells were trypsinized, washed twice with PBS and then centrifuged. Cells pellet was re-suspended in 0.01% Nonidet-P40 (Sigma-Aldrich), 10 μg/mL of RNasi (Sigma-Aldrich), 0.1% of sodium citrate (Sigma-Aldrich), 50 μg/mL di propidium iodide (PI) (Sigma-Aldrich), and kept in the dark for 30 min at room temperature. Florescence was detected by a flow cytometry (Beckman Coulter Epics XL-MCL), while cell cycle analysis was performed with Cell Cycle program (MODEFIT 5.0).

HT29 cells [2] = test: Count of alive cells after treatment; assay type: cell-based, human; settings: HT29, 50 μM of 9-HSA, 24 h
Method: Briefly 5.0×10^3 human colon adenocarcinoma cell line HT29 cells were seeded in 200 μl of growth medium in replicate (n=4) in a 48-well culture plate. After 24 h of cell growth, the medium was removed and the cells were incubated with the experimental medium containing KNPs-9HSA (50 μM of 9-HSA) and free 9-HSA. Twenty-four hours after treatment, cells were detached and counted.

For `CCCCCCCCCC(O)CCCCCCCC(=O)O` (centres unmarked) [Entry 9-HSA, 9-hydroxystearic acid], which cell cycle effect (HT29 cells [1]) is on record?
The cell cycle effect was “blocks the cell cycle in the G0/G1 phase”.

What about the “tumor cell proliferation (number of alive cells)” value (HT29 cells [2]) of the same molecule?
Its value is “inhibit tumor cell proliferation”.
